According to US7897591B2, “Method of treating fatty liver disease” (priority 2005, dated 2011):

Assays:
C57BL/6 mice = test: MR spectroscopy of percentage liver fat content in HCD mouse model; assay type: in vivo; conditions: HCD+MAR mice, 100 mg/kg twice daily orogastric gavage, 19 days; mean±SEM; P<0.05 vs HCD-only (24.1±1.7%)
Experimental: Experiments were performed on 5-6 week-old C57BL/6 mice (Jackson Laboratories, Bar Harbor, Me.). The animals, in groups of five, were housed in a barrier room and were acclimated to their environment for at least 72 hours prior to the initiation of each experiment. Animal protocols complied with the NIH Animal Research Advisory Committee guidelines and were approved by the Children's Hospital Boston Animal Care and Use Committee. Control animals (n=5) received normal chow and water ad libitum. All animals in the experimental groups were fed a fat-free, high carbohydrate liquid diet (HCD) ad libitum placed in one bottle per cage as previously described (3, 62). No additional sources of nutrition or hydration were provided. […] Three 2 mm thick slices were imaged for each sample and the saturation recovery curves were generated from signal intensities measured in identically sized regions of interest within a given slice. […] Spectra were obtained following Fourier transformation and phasing, and percent fat content was determined relative to water by numerical integration of the areas under the lipid and water peaks by an independent blinded reviewer.

PPAR-α = test: Western blot densitometry of liver PPAR-α; assay type: in vivo, mouse; conditions: HCD+MAR mice; nuclear + cytosolic summed; mean±SEM; P<0.02 vs HCD-only (11.5±4.4)
Experimental: Control animals (n=5) received normal chow and water ad libitum. All animals in the experimental groups were fed a fat-free, high carbohydrate liquid diet (HCD) ad libitum placed in one bottle per cage as previously described (3, 62). No additional sources of nutrition or hydration were provided. The HCD liquid solution contained 20% dextrose, a commercial mixture of 2% essential and nonessential amino acids (TrophAmine, B. Braun Medical, Irvine, Calif.), 2 ml trace elements (Trace Elements Injection 4, USP—Pediatric, American Regent Shirley, N.Y.), and 5 ml multivitamins (M.V.I. Pediatric™, Mayne Pharma, Paramus, N.J.). Each liter of HCD contained 30 meq sodium, 20 meq potassium chloride, 15 meq calcium, 10 meq magnesium, and 10 mM phosphate. The bottles were replaced daily with fresh HCD solution. HCD animals (n=5) received HCD only and no additional treatment for 19 days. The HCD+MAR animals (n=15) additionally received 100 mg/kg of Marimastat™ in 0.45% methylcellulose (Sigma-Aldrich Corporation, St. Louis, Mo.) vehicle twice daily via orogastric gavage. The animals were individually weighed every third day and at sacrifice. […] The assay was read at 595 nm and analyzed with Softmax® PRO Software (Molecular Devices Corporation, Sunnyvale, Calif.). 30 ug of protein per sample were analyzed by SDS-PAGE. […]

CNC(=O)[C@@H](NC(=O)[C@H](CC(C)C)[C@H](O)C(=O)NO)C(C)(C)C [Marimastat]
liver fat content by MR spectroscopy (C57BL/6 mice): 8.1±1.2%
PPAR-α level, Western blot densitometry (PPAR-α): 151.7±3.4
